Tests used:
[1] = Measurement of plasma concentrations of AdipoRon; assay type: in vivo, C57BL/6 mice; conditions: C57BL/6, mouse, C57B6 WT mice, oral 50 mg/kg, read-out: maximal concentration (Cmax) in plasma
Method: We measured the plasma concentrations of AdipoRon by HPLC and TSQ Quantum Ultra (ThermoFisher) in C57BL/6 mice orally administered with 50 mg of AdipoRon per kg bodyweight. For quantitative analyses, 20 μl of plasma was mixed with acetonitrile. The mixture was mixed vigorously for 30 sec and then centrifuged at 10,000 rpm for 3 min at 4° C. An aliquot of the supernatant was injected into the quantitative LC/MS system. Quantitative analyses were performed using an Accela HPLC system (ThermoFisher). The liquid chromatographic separations were carried out by using syncronis C18, 150×2.1 mm, 3 μm. Column temperature was held at 40° C. The flow rate was 0.2 ml/min. Elution solvent A was 0.1% formic acid in water and solvent B was 0.1% formic acid in methanol. The chromatographic conditions were as follows: 0-5 min 45% A/55% B; 5-6.5 min 5% A/95%B, 6.5-10 min 45%A/55%B. A typical injection volume was 3 μl. Quantitative analyses were performed using a TSQ Quantum Ultra triple-stage quadrupole mass spectrometer. Electro-spray ionization in positive ion mode (ESI+) was used for ionization and selective reaction monitoring (SRM) mode was chosen for detection. The optimized precursor ions pairs were m/z 429.251→91.057 for AdipoRon. […]

mice fed a HF diet = assay: Effects on lipid metabolism: plasma triglycerides and free fatty acid in mice fed a HF diet; assay type: in vivo
Method: (§1) Mice were 6-10 week of age at the time of the experiment. They were housed in cages and maintained on a 12 hr light-dark cycle.
(§2) Plasma glucose levels were determined by using a glucose B-test (Wako Pure Chemical Industries). Plasma insulin was measured with an insulin immunoassay (Shibayagi). Plasma NEFAs (Wako Pure Chemical Industries) were assayed by enzymatic methods.

[2] = system: HF diet-induced obese mice; assay: Oral glucose tolerance test and insulin tolerance in HF diet-induced obese mice; assay type: in vivo; conditions: WT mice on HF diet, oral 50 mg/kg, 10 days
Method: The original Adipor1^+/−/Adipor2^+/− mice (C57BL/6 and 129/Sv mixed background)^a were backcrossed with C57B1/6 mice more than seven times. All experiments in this study were conducted on male littermates.
as §1, §2
The oral glucose tolerance test (OGTT) and insulin tolerance test (ITT) were conducted as previously described^a,b with slight modifications. The areas of the glucose and insulin curves were calculated by multiplying the cumulative mean height of the glucose values (1 mg/ml=1 cm) and insulin values (1 ng/ml=1 cm), respectively, by time (60 min=1 cm)^c,a. The insulin resistance index was calculated from the product of the areas of glucose and insulin×10^−2 in the glucose tolerance test. The results are expressed as the percentage of the value respect to control littermates.

db/db mice = assay: TG content, oxidative stress and inflammation in insulin target tissues in db/db mice; assay type: in vivo
Method: (§3) Mitochondrial content assays were carried out as described previously^a,b, with slight modifications. For quantification of mitochondrial content, we used mtDNAas previously described^c.
(§4) Real-time PCR was carried out according to the method described previously^a,b,c. Total RNA was prepared from cells or tissues with Trizol (Invitrogen) according to the manufacturer's instructions. We used a real-time PCR method to quantify the mRNAs^19, with slight modifications.
(§5) Skeletal muscle homogenates were extracted, and tissue triglyceride content was determined as described previously^a-c, with some modifications. To investigate whether oxidative stress was increased, we measured lipid peroxidation, a marker of oxidative injury, as represented by plasma thiobarbituric acid reactive substance (TBARS) as described previously^4. Briefly, tissue samples were homogenized in a buffer solution containing 50 mM Tris-HCl (pH 7.4) and 1.15% KCl, and then centrifuged. The supernatant was used for the assay. The levels of lipid peroxidation in tissue homogenate and plasma were measured in terms of the amount of TBARS using the LPO test (Wako Pure Chemical Industries).

[3] = system: AdipoR1-AMPK-PGC-1α pathways in skeletal muscle; assay: Skeletal muscle: gene expression, mitochondrial DNA content, TG content, TBARS in mice fed a HF diet; assay type: in vivo
Method: as §3, §4, §5

mice on a HF diet = assay: Hyperinsulinemic euglycemic clamp study in mice on a HF diet; assay type: in vivo
Method: Clamp studies were carried out as described previously^a,b, with slight modifications. In brief, 2-3 days before the study, an infusion catheter was inserted into the right jugular vein under general anesthesia with sodium pentobarbital. Studies were performed on mice under conscious and unstressed conditions after a 6 h fast. A primed continuous infusion of insulin (Humulin R, Lilly) was given (10.0 milliunits/kg/min),and the blood glucose concentration, monitored every 5 min, was maintained at 120 mg/dl by administration of glucose (5 g of glucose per 10 ml enriched to 20% with [6,6-^2H2] glucose (Sigma)) for 120 min. Blood was sampled via tail tip bleeds at 90, 105, and 120 min for determination of the rate of glucose disappearance (Rd). Rd was calculated according to nonsteady-state equations, and endogenous glucose production (EGP) was calculated as the difference between Rd and exogenous glucose infusion rates^a,b,c.

[4] = Adipor1/r2 double-knockout mice
[5] = WT mice fed a HF diet, oral 50 mg/kg, 10 days
[6] = WT mice on HF diet, 10 days of administration

O=C(COc1ccc(C(=O)c2ccccc2)cc1)NC1CCN(Cc2ccccc2)CC1 [Compound 73, 2-(4-benzoyl-phenoxy)-N-(1-benzylpiperidin-4-yl)acetamide]
Cmax [1]: 11.8 µM | reduction of plasma TG and FFA (mice fed a HF diet; [4]): not observed | plasma concentration of free fatty acid (FFA) (mice fed a HF diet; [5]): reduced | plasma concentration of triglycerides (TG) (mice fed a HF diet; [5]): reduced | fasting plasma glucose and insulin levels, glucose and insulin responses during OGTT [2]: significant decrease | insulin sensitivity [2]: improved insulin sensitivity | TG content in the liver (db/db mice): significantly reduced TG content | expression levels of genes encoding pro-inflammatory cytokines in the liver (db/db mice): reduced expression levels | expression levels of genes encoding pro-inflammatory cytokines, macrophage markers, M1 macrophage markers in the WAT (db/db mice): reduced the expression levels | expression of Pparα and its target genes in the liver (db/db mice): increased the expression | expressions of Ppargc1a, Pck1 and G6pc in the liver (db/db mice): significantly decreased expressions | oxidative stress in the liver (db/db mice): significantly reduced | TG content and TBARS in skeletal muscles (db/db mice; oral): decreased TG content and TBARS | levels of Acadm and Sod2 in skeletal muscles (db/db mice; oral): significantly increased | levels of genes involved in mitochondrial biogenesis functions and DNA content in skeletal muscles (db/db mice; oral): significantly increased | effects on mitochondrial genes and mitochondrial DNA content in skeletal muscle [3, 4]: totally obliterated | levels of type I fiber marker Troponin I (slow) (Tnni1) [3, 4]: but not in Adipor1/r2 double-knockout mice | effect on Sod2 and TBARS ([3]; Adipor1/r2 double-knockout mice fed with a HF diet): such effect was not observed | levels of type I fiber marker Troponin I (slow) (Tnni1) ([3]; WT mice): increased the levels | mitochondrial DNA content in skeletal muscle ([3]; WT mice): increased mitochondrial DNA content | TG content in the skeletal muscle ([3]; WT mice fed with a HF diet): decreased TG content | expression levels of oxidative stress detoxifying genes such as Sod2 ([3]; skeletal muscle, WT mice): significantly increased expression levels | genes involved in fatty acid oxidation such as Acadm ([3]; skeletal muscle, WT mice): significantly increased | oxidative stress markers such as TBARS ([3]; skeletal muscle, WT mice): decreased oxidative stress markers | GIR, EGP and Rd (mice on a HF diet; [4]): None of these parameters were improved | endogenous glucose production (EGP) (mice on a HF diet; [6]): significantly suppressed | glucose disposal rate (Rd) (mice on a HF diet; [6]): significantly increased | glucose infusion rate (GIR) (mice on a HF diet; [6]): significantly increased

— patent publication US20170298051A1, “ACTIVATOR OF ADIPONECTIN RECEPTOR” (THE UNIVERSITY OF TOKYO, priority 2013, published 2017)
